Results from patent US20230181633A1, “METHODS OF TREATING CANCER USING A COMBINATION OF TUMOR MEMBRANE VESICLES AND METFORMIN” (METACLIPSE THERAPEUTICS CORPORATION, priority 2019, published 2023).

Tests used:
[1] = test system: oral squamous cell carcinoma MOC2 cells; assay: MOC2 head and neck cancer model, tumor growth; type: in vivo, C57BL/6J mice; conditions: MOC2-challenged mice, treatment from Day 3 (FIG. 9A, 9B)
Method: C57BL/6J mice were inoculated with 500,000 oral squamous cell carcinoma MOC2 cells s.c. in the hind flank. Tumors were palpable at day 3 post challenge. PBS, MET alone, TMV alone, or a combination of TMV + MET was employed at days 3, 8, 13, 18, and 25. Tumor growth was measured over time. […] Filled circle is PBS treatment group, filled square is MET alone treatment group, filled grey triangle is TMV alone treatment group, upside down triangle is MET + TMV treatment group. n=5 per group, two-way ANOVA with Tukey’s multiple comparison for statistical significance. *p<0.05, **p<0.01.
In the murine head and neck MOC2 cancer model, the TMV vaccine generated from MOC2 tumors was administered at Day 3, while MET was started at Day 3 and continued every other day until end point.

MOC2 cells = assay: MOC2 spontaneous lung metastasis; type: in vivo, C57BL/6J mice; conditions: lungs harvested after 25 days of tumor growth (FIG. 10)
Source text: C57BL/6J mice were inoculated with 500,000 MOC 2 cells s.c. in the hind flank. […] PBS, MET alone, TMV alone, or a combination of TMV + MET was employed at days 3, 8, 13, 18, and 25. Lungs were harvested and dispersed into single cell suspension after 25 days of tumor growth. Metastatic tumor cells were selected using G418 in vitro for 11-14 days and metastatic cells were quantified using a Nexelcom T4 cell counter.
In the murine head and neck MOC2 cancer model, the TMV vaccine generated from MOC2 tumors was administered at Day 3, while MET was started at Day 3 and continued every other day until end point. […] The lungs from these MOC2-challenged mice were harvested after 25 days of tumor growth and the number of metastatic cells was quantified after suspending the lungs into a single cell suspension (FIG. 10).

[2] = test system: immune cell subtypes in blood; assay: Immune cell subtypes in blood of 4T1-challenged mice; type: in vivo, mouse
Method: FIGS. 2(A-C) is a set of graphs showing percentages of T-cell subtypes in the blood of mice with 4T1 tumor. After 4T1 tumor challenge and treatment with water, TMV alone, MET alone, or TMV+MET, mouse blood samples were analyzed for percentage of CD3+ (FIG. 2A), CD4+ (FIG. 2B), and CD8+ (FIG. 2C) T-cells, in relation to CD45+ T cells. Filled circle is water treatment group, filled square is MET treatment group, filled grey triangle is TMV treatment group, upside down triangle is TMV + MET treatment group.
FIGS. 3(A-B) is a set of Fluorescence Activated Cell Sorting (FACS) plots showing presence of myeloid-derived suppressor cells (MDSCs) (FIG. 3A) and CD3+ cells (FIG. 3B) in the blood of 4T1 tumor-challenged mice.
FIG. 4 is a set of graphs showing amounts of MDSCs (top panel) and CD3+ T cells (bottom panel) in the blood of 4T1 tumor-challenged mice treated with water, TMV alone, MET alone, or TMV+MET. Filled circle is water treatment group, filled square is MET treatment group, filled grey triangle is TMV treatment group, upside down triangle is TMV + MET treatment group. **p<0.01.
The 4T1-challenged mice were further analyzed for immunological effects upon administration of TMV, MET, or both. Blood samples were obtained from mice, and samples were subjected to analysis to determine presence of immune cell subtypes.

4T1 tumor cells = assay: Lung metastasis in 4T1-challenged mice; type: in vivo, mouse
Method: FIGS. 6(A-B) is a set of graphs showing the amount of 4T1 tumor cells (FIG. 6A) and metastatic clones (FIG. 6B) obtained in the lungs of 4T1 tumor-challenged mice treated with water, TMV alone, MET alone, or TMV + MET. **p<0.01, ***p<0.001,
4T1-challenged mice were also analyzed for their metastatic potential. Upon sacrificing the mice, the lungs were analyzed for tumor colony forming units […] and overall total tumor cells (FIG. 6B).

SCCVII cells = assay: SCCVII squamous cell tumor challenge, tumor growth over time; type: in vivo, C3H/Hej mice
Method: FIGS. 1(A-C) is a set of graphs showing tumor growth over time. […] Tumor growth was measured over time. […] Tumors were palpable at day 3, which is when treatment with PBS, MET alone, TMV alone, or TMV + MET was initiated. The subsequent treatments were employed at days […]. […] Tumors were palpable at day 3, treatment of PBS control, MET alone, TMV alone, or TMV + MET was applied at days 10, 17, 24, 31, and 40. Tumor growth was measured over time. n=5 per group, two-way ANOVA with Tukey’s multiple comparison for statistical significance. For FIGS. 1(A-C), filled circle is PBS treatment group, filled square is MET alone treatment group, filled grey triangle is TMV alone treatment group, upside down triangle is MET + TMV treatment group. *p<0.05, **p<0.01, ***p<0.001.
In the same model (SCCVII), the TMV and MET treatment were delayed and given at Day 10 when the tumors were established (about 50 mm^2) (FIG. 1C).

[3] = test system: 4T1 mouse breast cancer cells; assay: Survival after surgical resection of 4T1 tumors; type: in vivo
Method: FIG. 8 is a graph showing survival of mice treated with PBS, TMV alone, MET alone, or TMV+MET after surgical resection of tumors. Mice were challenged 10 days before surgery with 4T1 tumor cells. After tumor establishment, tumors were resected on Day 0. Beginning on Day 5, 50 mg/kg metformin was administered. On Days 5 and 12, 4T1-derived TMVs were administered. […] Solid line is PBS treatment group, dashed line is MET alone, dotted line is TMV alone, dash and dot line is TMV and MET treatment.
Mice were divided into four groups of five mice per group, wherein each group was to be treated with either a PBS control, metformin (MET) alone, 4T1-derived TMV (as described in Example 1) or TMV+MET. Each mouse was challenged with 4T1 mouse breast cancer cells by subcutaneous injection and tumors were later surgically resected (Day 0). On Day 5, mice in the MET and TMV+MET groups were administered 50 mg/kg metformin in drinking water daily until Day 20. On Days 5 and 12, mice in the TMV and TMV+MET groups were administered a dose of TMVs formed from 4T1 cells. Mice were then analyzed for survival (FIG. 8).

CN(C)C(=N)NC(=N)N [MET, 3-(diaminomethylidene)-1,1-dimethylguanidine]
MOC2 tumor growth / tumor area [1]: no reduction in tumor growth
number of metastatic MOC2 cells per lung (MOC2 cells): did not have a significant reduction
amount of myeloid derived suppressor cells (MDSC) in blood samples ([2]; 4T1-challenged mice (FIG. 3A, FIG. 4 upper panel)): decreased
amount of CD3+ T cells in the blood ([2]; 4T1-challenged mice, by week 2, vs PBS control (FIG. 2A)): increased
amount of CD4+ T cells in the blood ([2]; 4T1-challenged mice, by week 2, vs PBS control (FIG. 2B)): increased
amount of CD8+ T cells in the blood ([2]; 4T1-challenged mice, by week 2, vs PBS control (FIG. 2C)): increased
lung metastasis: tumor colony forming units (4T1 tumor cells; lungs of 4T1-challenged mice at sacrifice (FIG. 6A)): not MET alone significantly reduced
lung metastasis: overall total tumor cells (4T1 tumor cells; lungs of 4T1-challenged mice at sacrifice (FIG. 6B)): not MET alone significantly reduced
tumor growth, established tumors (SCCVII cells; SCCVII, treatment delayed to Day 10, tumors about 50 mm^2 (FIG. 1C)): did not have a significant decrease in growth
tumor size (in words) (SCCVII cells; SCCVII-challenged mice, treatment from day 3 (FIG. 1B)): reduced tumor size
mouse survival post-surgery (in words) ([3]; 4T1 tumors resected Day 0 (FIG. 8)): increased mouse survival
survival ([3]; at day 60 after resection of 4T1 tumors, 50 mg/kg metformin from Day 5 (FIG. 8)): 0%
